Assays:
Type in all cases: functional
Mus musculus [1] = assay: In vivo antimalarial activity of compound against Plasmodium berghei in mice (Mus musculus) expressed as mean survival time at 40 mg/kg
Mus musculus [2] = assay: In vivo antimalarial activity of compound against Plasmodium berghei in mice (Mus musculus) expressed as mean survival time at 80 mg/kg
Mus musculus [3] = assay: In vivo antimalarial activity of compound against Plasmodium berghei in mice (Mus musculus) expressed as mean survival time at 20 mg/kg
Mus musculus [4] = assay: In vivo antimalarial activity of compound against Plasmodium berghei in mice (Mus musculus) expressed as mean survival time at 160 mg/kg

SMILES | Survival time (Mus musculus [1]) [days] | Survival time (Mus musculus [2]) [days] | Survival time (Mus musculus [3]) [days] | Survival time (Mus musculus [4]) [days]
Nc1nc(N)c2c(Nc3cc(CN4CCCC4)c(O)c(CN4CCCC4)c3)c3ccc(Cl)cc3nc2n1 | >60 | >60 | >60 | >60
CN(COOC(C)(C)C)c1c2ccc(Cl)cc2nc2nc(N)nc(N)c12 | 30 | 20 | 28 | 14
Nc1nc(N)c2c(Nc3ccc(S(N)(=O)=O)cc3)c3ccc(Cl)cc3nc2n1 | 13 | 15 | 12 | 14
CCN(CC)c1cc(Nc2c3ccc(Cl)cc3nc3nc(N)nc(N)c23)cc(N(CC)CC)c1O | >60 | >60 | >60 | >60
Nc1nc(N)c2c(N)c3ccc(Cl)cc3nc2n1 | 16 | 18 | 15 | 20
CCN(COOC(C)(C)C)c1c2ccc(Cl)cc2nc2nc(N)nc(N)c12 | 12 | 14 | 13 | 15
Nc1nc(N)c2c(Nc3ccc(S(=O)(=O)Nc4ccccn4)cc3)c3ccc(Cl)cc3nc2n1 | 14 | 15 | 11 | 13
Nc1nc(N)c2c(Nc3ccc(O)c(CN4CCCC4)c3)c3ccc(Cl)cc3nc2n1 | 20 | 25 | 15 | 26
COc1ncnc(NS(=O)(=O)c2ccc(Nc3c4ccc(Cl)cc4nc4nc(N)nc(N)c34)cc2)c1OC | >60 | >60 | >60 | >60
CCN(CC)c1cc(Nc2c3ccc(Cl)cc3nc3nc(N)nc(N)c23)ccc1O | 13 | 15 | 12 | 14
CCN(CC)CCCC(C)Nc1ccnc2cc(Cl)ccc12 (stereo unspecified) [CHLOROQUINE] | – | – | 15 | –

Source: ChEMBL document CHEMBL1145233, “Design, synthesis and evaluation of 5-substituted amino-2,4-diamino-8-chloropyrimido-[4,5-b]quinolines as novel antimalarials” (2005)
